Some test systems named below: BT-549; CCRF-CEM; COLO 205; DLD-1; HCT-15; Hs-578T; KM-20L2; MOLT-4; Malme-3M; NCI-H23; OVCAR-5; RPMI-8226; SF-539; SK-MEL-2; SK-OV-3; SR; SW-620; TK-10; UACC-257; KM12.
Holding throughout (assay): inhibition of tumour cell growth, NCI panel, 48 h

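Briefly, cells in 96-well plates were exposed to five compound concentrations for 48 h, and endpoints were estimated by linear interpolation. GI50 marks 50% less growth.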 The source made the active and inactive calls. Cut-off read from the data, not from the text of the source: active = GI50 up to about 1.1 µM and inactive = higher.

As for `C/C(=C\COc1ccc2ccc(=O)oc2c1)C1=CC(=O)C(C)(C)O1` [GEIPARVARIN], the GI50 in the experiment with BT-549 is 3.69 µM (inactive); in the experiment on CCRF-CEM, 1.51 µM (inactive); in the experiment with COLO 205, 4.14 µM (inactive); in the experiment on DLD-1, 2.26 µM (inactive); in the experiment with HCT-15, 3.04 µM; with Hs-578T, 2.51 µM (inactive). In addition, the GI50 with KM-20L2 was 3.39 µM (inactive); in the experiment on MOLT-4, 4.14 µM (inactive); with Malme-3M it was 5.58 µM (inactive); with NCI-H23 it was 3.29 µM (inactive); with OVCAR-5 it was 10.2 µM (inactive); in the experiment with RPMI-8226, 2.04 µM (inactive). The GI50 is 2.17 µM (inactive) in the experiment on SF-539; 3.66 µM (inactive) with SK-MEL-2; 7.87 µM (inactive) with SK-OV-3; 1.68 µM (inactive) with SR; 3.43 µM (inactive) with SW-620; 5.07 µM (inactive) in the experiment with TK-10. Besides, the GI50 with UACC-257 is 4.69 µM (inactive).
Take `COC(=O)[C@@H]1CCCCC[C@H]2C(CO)=C(C)C(=O)C12` (some centres undefined): the GI50 with CCRF-CEM is > 100 µM (inactive); in the experiment with COLO 205, > 100 µM (inactive); with DLD-1, > 100 µM (inactive); in the experiment on HCT-15, above 100 µM; in the experiment on KM-20L2, > 100 µM (inactive); with KM12 it was > 100 µM (inactive). Moreover, the GI50 in the experiment on MOLT-4, in the experiment with Malme-3M, with NCI-H23, in the experiment on OVCAR-5, in the experiment with RPMI-8226 and with SF-539 was > 100 µM (inactive) each time. Further, the GI50 with SK-MEL-2, with SK-OV-3, with SR, in the experiment with SW-620, in the experiment with TK-10 and in the experiment with UACC-257 was > 100 µM (inactive) throughout.
Consider `CCCCCCCCCCCCCC(=O)CBr`, for which the GI50 is 8.71 µM (inactive) in the experiment on BT-549; 0.467 µM (active) in the experiment with CCRF-CEM; 14.9 µM (inactive) with COLO 205; 11.7 µM (inactive) in the experiment on DLD-1; 11.1 µM with HCT-15; 5.64 µM (inactive) in the experiment on Hs-578T. Besides, the GI50 was 15.6 µM (inactive) with KM-20L2; 12.1 µM (inactive) with KM12; 0.764 µM (active) in the experiment with MOLT-4; 9.06 µM (inactive) with Malme-3M; 9.77 µM (inactive) in the experiment with NCI-H23; 22.1 µM (inactive) in the experiment on OVCAR-5. The GI50 is 1.47 µM (inactive) in the experiment with RPMI-8226; 13.2 µM (inactive) in the experiment on SF-539; 11.5 µM (inactive) with SK-MEL-2; 24 µM (inactive) in the experiment on SK-OV-3; 1.04 µM (active) in the experiment with SR; 12 µM (inactive) in the experiment on SW-620. For the same molecule, the GI50 is 15.8 µM (inactive) with TK-10 and 13.2 µM (inactive) in the experiment with UACC-257.
With `CC(=O)OC(C)C1C2=C(C(=O)CC1(C)O)C(=O)c1c(ccc(-c3ccc4c(c3O)C(=O)C3=C(C4=O)C(C(C)OC(C)=O)C(C)(O)CC3=O)c1O)C2=O` (centres undefined), the GI50 in the experiment on BT-549 was 1.28 µM (inactive); in the experiment on CCRF-CEM, 0.308 µM (active); in the experiment with COLO 205 it was 0.692 µM (active); with DLD-1 it was 1.11 µM (active); in the experiment on HCT-15, 2.58 µM; with Hs-578T it was 2.11 µM (inactive). The GI50 in the experiment with KM-20L2 was 2.04 µM (inactive); in the experiment on KM12, 3.19 µM (inactive); with MOLT-4, 1.12 µM (inactive); with Malme-3M, 0.724 µM (active); in the experiment on NCI-H23, 1.47 µM (inactive); with OVCAR-5, 5.97 µM (inactive). The GI50 was 0.483 µM (active) in the experiment on RPMI-8226; 1.92 µM (inactive) in the experiment with SF-539; 1.75 µM (inactive) in the experiment with SK-MEL-2; 10.8 µM (inactive) in the experiment with SK-OV-3; 1.1 µM (active) with SR; 0.667 µM (active) in the experiment with SW-620. Also, the results for the GI50 in the experiment with TK-10 and in the experiment on UACC-257 were 2.19 µM (inactive) and 1.75 µM (inactive), respectively.
`COC(=O)C1CC(=O)CCC1c1ccccc1` (centres undefined): the GI50 in the experiment with CCRF-CEM is > 100 µM (inactive); with COLO 205, > 100 µM (inactive); in the experiment on DLD-1, > 100 µM (inactive); in the experiment on HCT-15 it was above 100 µM; in the experiment with KM-20L2 it was > 100 µM (inactive); with KM12, > 100 µM (inactive). Besides, the GI50 with MOLT-4, in the experiment on Malme-3M, in the experiment with NCI-H23, with OVCAR-5, in the experiment on RPMI-8226 and with SF-539 was > 100 µM (inactive) throughout. The GI50 in the experiment on SK-MEL-2, in the experiment with SK-OV-3, in the experiment on SR, in the experiment with SW-620, in the experiment on TK-10 and in the experiment on UACC-257 was > 100 µM (inactive) throughout.
In the case of `CN(C)CCS/C(=N\c1ccccc1)n1cccc1`, the GI50 in the experiment with CCRF-CEM is 57.7 µM (inactive); in the experiment on COLO 205, > 100 µM (inactive); with DLD-1 it was > 100 µM (inactive); with HCT-15 it was 98.4 µM; in the experiment on KM-20L2 it was 32.1 µM (inactive); in the experiment on KM12, 82.8 µM (inactive). Moreover, the GI50 is 49.9 µM (inactive) with MOLT-4; 89.5 µM (inactive) in the experiment with Malme-3M; 72.8 µM (inactive) in the experiment on NCI-H23; > 100 µM (inactive) in the experiment on OVCAR-5; > 100 µM (inactive) in the experiment with RPMI-8226; 66.5 µM (inactive) in the experiment on SF-539. Also, the GI50 in the experiment with SK-MEL-2 was 44.7 µM (inactive); in the experiment on SK-OV-3 it was > 100 µM (inactive); in the experiment with SR it was 33.2 µM (inactive); with SW-620 it was > 100 µM (inactive); in the experiment on TK-10 it was > 100 µM (inactive); with UACC-257, 42.9 µM (inactive).
Take `CCOC(=O)C1=C(C)Nc2ccccc2S1`: the GI50 with CCRF-CEM was > 100 µM (inactive); in the experiment with COLO 205 it was 77.8 µM (inactive); in the experiment with DLD-1 it was > 100 µM (inactive); in the experiment with HCT-15 it was above 100 µM; in the experiment on KM-20L2 it was > 100 µM (inactive); with KM12, > 100 µM (inactive). Moreover, the GI50 was 46.1 µM (inactive) in the experiment on MOLT-4; > 100 µM (inactive) in the experiment on Malme-3M; > 100 µM (inactive) in the experiment with NCI-H23; > 100 µM (inactive) in the experiment on OVCAR-5; 48.3 µM (inactive) in the experiment on RPMI-8226; > 100 µM (inactive) in the experiment on SF-539. Besides, the GI50 in the experiment on SK-MEL-2, in the experiment on SK-OV-3, in the experiment with SR, with SW-620, with TK-10 and in the experiment with UACC-257 was > 100 µM (inactive) throughout.
For the molecule `Cc1c(-c2cc(-c3ccccc3)n[nH]c2=O)c2ccccc2n1C`, the GI50 was > 100 µM (inactive) in the experiment with CCRF-CEM; > 100 µM (inactive) in the experiment on COLO 205; > 100 µM (inactive) with DLD-1; above 100 µM in the experiment on HCT-15; > 100 µM (inactive) in the experiment on KM-20L2; > 100 µM (inactive) with KM12. Also, the GI50 in the experiment on MOLT-4 is > 100 µM (inactive); with Malme-3M, > 100 µM (inactive); in the experiment with NCI-H23 it was > 100 µM (inactive); with OVCAR-5, > 100 µM (inactive); in the experiment on RPMI-8226, 76.2 µM (inactive); in the experiment with SF-539 it was > 100 µM (inactive). In addition, the GI50 in the experiment on SK-MEL-2, in the experiment with SK-OV-3, with SR, with SW-620, in the experiment with TK-10 and in the experiment with UACC-257 was > 100 µM (inactive) in each case.

The values above are taken from ChEMBL document CHEMBL1201862, “PubChem BioAssay data set” (2004).
